Test results from ChEMBL document CHEMBL4219207, “Reversible, orally available ADP receptor (P2Y12) antagonists Part I: Hit to lead process” (Bioorg Med Chem Lett, 2018).

How the values were obtained:
P2Y purinoceptor 12 [1] = molecular target: T1, P2Y purinoceptor 12 (Homo sapiens, UniProt Q9H244); test: Displacement of [3H]2MeSADP from P2Y12 receptor in human platelets after 60 mins by TopCount scintillation counting method
[2] = Cmax in Sprague-Dawley rat at 2 mg/kg, po via gavage; assay type: ADME, organism-based; parameters: dose 2 mg/kg, route oral; settings: in vivo
[3] = Oral bioavailability in Sprague-Dawley rat at 2 mg/kg via gavage; assay type: ADME, organism-based; settings: in vivo
[4] = Plasma concentration in Sprague-Dawley rat at 2 mg/kg, po via gavage after 1 hr using sample obtained from jugular vein; assay type: ADME, organism-based
[5] = Plasma concentration in Sprague-Dawley rat at 2 mg/kg, po via gavage after 3 hrs using sample obtained from jugular vein; assay type: ADME, organism-based
[6] = Plasma concentration in Sprague-Dawley rat at 2 mg/kg, po via gavage after 1 hr using sample obtained from portal vein; assay type: ADME, organism-based
[7] = Plasma concentration in Sprague-Dawley rat at 2 mg/kg, po via gavage after 3 hrs using sample obtained from portal vein; assay type: ADME, organism-based
[8] = Metabolic stability in rat liver microsomes assessed as parent compound remaining at 3000 nM; assay type: ADME, microsome; settings: read-out: Stability
[9] = Half life in Sprague-Dawley rat at 2 mg/kg, po via gavage; assay type: ADME, organism-based; settings: in vivo
[10] = Metabolic stability in dog liver microsomes assessed as parent compound remaining at 3000 nM; assay type: ADME, Canis lupus familiaris, microsome; settings: read-out: Stability
[11] = Metabolic stability in human liver microsomes assessed as parent compound remaining at 3000 nM; assay type: ADME, microsome; settings: read-out: Stability
P2Y purinoceptor 12 [12] = molecular target: T1, P2Y purinoceptor 12; test: Competitive/reversible antagonist activity at P2Y12 receptor in platelets (unknown origin) assessed as inhibition of ADP-induced platelet aggregation; assay type: functional
[13] = Permeability in human Caco2 cells; assay type: ADME, cell-based; settings: Caco-2, read-out: permeability

T1 sequence (Q9H244 whole entry): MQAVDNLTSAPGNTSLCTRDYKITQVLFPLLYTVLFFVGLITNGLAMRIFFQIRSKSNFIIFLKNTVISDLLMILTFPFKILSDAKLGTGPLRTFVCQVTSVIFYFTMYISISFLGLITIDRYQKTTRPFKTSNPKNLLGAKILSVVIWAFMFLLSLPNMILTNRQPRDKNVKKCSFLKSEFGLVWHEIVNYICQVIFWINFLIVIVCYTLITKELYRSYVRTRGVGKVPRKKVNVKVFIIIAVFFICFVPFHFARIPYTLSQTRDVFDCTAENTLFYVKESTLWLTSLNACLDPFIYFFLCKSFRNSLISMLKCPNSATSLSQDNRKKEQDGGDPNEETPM

Row | Compound | IC50 (P2Y purinoceptor 12 [1]) [nM] | further results
1 | CCOC(=O)N1CCN(C(=O)[C@@H](C)NC(=O)c2cc(OC)c3ccccc3n2)CC1 | 14000 | –
2 | CCOC(=O)N1CCN(C(=O)[C@H](CO)NC(=O)c2cc(OC)c3ccccc3n2)CC1 | 1100 | –
3 | CCOC(=O)N1CCN(C(=O)[C@@H](CC(=O)O)NC(=O)c2cc(OC)c3ccccc3n2)CC1 | 18000 | –
4 | CCOC(=O)N1CCN(C(=O)[C@@H](NC(=O)c2cc(OC)c3ccccc3n2)C(C)C)CC1 | 1500 | –
5 | COC(=O)N1CCN(C(=O)CNC(=O)c2cc(OC)c3ccccc3n2)CC1 | > 3000 | –
6 | CCOC(=O)N1CCN(C(=O)CNC(=O)c2cc(OCC)c3ccccc3n2)CC1 | 840 | –
7 | CCOC(=O)N1CCN(C(=O)[C@H](Cc2c[nH]c3ccccc23)NC(=O)c2cc(OC)c3ccccc3n2)CC1 | 7900 | –
8 | CCOC(=O)N1CCN(C(=O)CNC(=O)c2cc(OC)c3ccccc3n2)CC1 | 690 | Cmax [2]: 1200 nM; bioavailability [3]: 42%
9 | CCOC(=O)N1CCN(C(=O)[C@@H](CSCC(=O)O)NC(=O)c2cc(OC)c3ccccc3n2)CC1 | 190 | –
10 | CCOC(=O)N1CCN(C(=O)[C@H](CCCCN)NC(=O)c2cc(OC)c3ccccc3n2)CC1 | 26000 | –
11 | CCOC(=O)N1CCN(C(=O)CNC(=O)C=C2c3ccccc3-c3ccccc32)CC1 | 860 | Cmax [2]: 2700 nM
12 | CCOC(=O)N1CCN(C(=O)CNC(=O)c2cc(OCc3ccccc3)c3ccccc3n2)CC1 | > 3000 | –
13 | CCOC(=O)N1CCN(C(=O)[C@H](CC(=O)O)NC(=O)c2cc(OC)c3ccccc3n2)CC1 | 150 | concentration at 1 h [4]: 270 nM; concentration at 3 h [5]: 200 nM; concentration at 1 h [6]: 410 nM; concentration at 3 h [7]: 380 nM
14 | CCOC(=O)N1CCN(C(=O)CNC(=O)c2cc(O)c3ccccc3n2)CC1 | > 2000 | –
15 | CCOC(=O)N1CCN(C(=O)CNC(=O)c2ccc3ccccc3c2)CC1 | 1800 | Cmax [2]: 1500 nM
16 | CCOC(=O)N1CCN(C(=O)[C@H](CCC(=O)O)NC(=O)c2cc(OC)c3ccccc3n2)CC1 | 86 | remaining at 3 µM [8]: > 90%; half-life [9]: 72 min; remaining at 3 µM [10]: > 90%; concentration at 1 h [4]: 120 nM; concentration at 3 h [5]: 100 nM; concentration at 1 h [6]: 340 nM; Cmax [2]: 120 nM; remaining at 3 µM [11]: > 90%; Kb (P2Y purinoceptor 12 [12]): 94 nM; concentration at 3 h [7]: 340 nM; Papp [13]: 0.166 ×10⁻⁶ cm/s
17 | CCOC(=O)N1CCN(C(=O)[C@H](CCC(N)=O)NC(=O)c2cc(OC)c3ccccc3n2)CC1 | 2500 | –
18 | CCOC(=O)N1CCN(C(=O)[C@H](CC(=O)NCC(=O)O)NC(=O)c2cc(OC)c3ccccc3n2)CC1 | 1100 | –

Row | Compound | IC50 (P2Y purinoceptor 12 [1]) [nM] | further results
19 | CCOC(=O)N1CCN(C(=O)[C@H](CC(N)=O)NC(=O)c2cc(OC)c3ccccc3n2)CC1 | 2100 | –
20 | CCOC(=O)N1CCN(C(=O)[C@H](Cc2cnc[nH]2)NC(=O)c2cc(OC)c3ccccc3n2)CC1 | 1500 | –
21 | CCOC(=O)N1CCN(C(=O)CN(C)C(=O)c2cc(OC)c3ccccc3n2)CC1 | 21000 | –
22 | CCOC(=O)N1CCN(C(=O)[C@@H](CCC(=O)O)NC(=O)c2cc(OC)c3ccccc3n2)CC1 | 22000 | –
23 | COc1cc(C(=O)NCC(=O)N2CCN(c3cccc(C)c3)CC2)nc2ccccc12 | 890 | –
24 | CCc1ccc(C(=O)N2CCN(C(=O)CNC(=O)c3cc(OC)c4ccccc4n3)CC2)cc1 | 1800 | –
25 | CCOC(=O)N1CCN(C(=O)[C@H](C)NC(=O)c2cc(OC)c3ccccc3n2)CC1 | 1900 | –
26 | CCOC(=O)N1CCN(C(=O)CNC(=O)c2cc(OC)c3ccccc3n2)[C@@H](C)C1 | 1100 | –
27 | CCCOc1cc(C(=O)NCC(=O)N2CCN(C(=O)OCC)CC2)nc2ccccc12 | 520 | –
28 | CCCCCC(=O)N1CCN(C(=O)CNC(=O)c2cc(OC)c3ccccc3n2)CC1 | 1200 | –
29 | CCOC(=O)N1CCN(C(=O)CNC(=O)c2cc(OC)c3ccccc3n2)C[C@@H]1C | 1700 | –
30 | CCOC(=O)N1CCN(C(=O)CNC(=O)c2cc(OC)c3ccccc3n2)[C@H](C)C1 | 4500 | –
31 | CCOC(=O)N1CCN(C(=O)CNC(=O)c2cc(OC)c3ccccc3n2)C[C@H]1C | 4300 | –
32 | CCOC(=O)N1CCN(C(=O)[C@H](Cc2ccccc2)NC(=O)c2cc(OC)c3ccccc3n2)CC1 | 8600 | –
33 | COc1cc(C(=O)NCC(=O)N2CCN(C(=O)NC(C)(C)C)CC2)nc2ccccc12 | 910 | –
34 | CCOC(=O)N1CCN(C(=O)[C@H](COCC(=O)O)NC(=O)c2cc(OC)c3ccccc3n2)CC1 | 200 | –
35 | CCOC(=O)N1CCN(C(=O)[C@H](CCCC(=O)O)NC(=O)c2cc(OC)c3ccccc3n2)CC1 | 270 | –
